Laboratory results taken from PubChem BioAssay (NCI).
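GI50 marks 50% less growth. TGI denotes the concentration required for complete inhibition of growth.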

Experiments:
Assay in all cases: NCI-60 cell line screen, 384-well format
HCT-15 colon = tested on: HCT-15 colon
786-0 renal = tested on: 786-0 renal
HT29 colon = tested on: HT29 colon
SF-268 CNS = tested on: SF-268 CNS
A549 NSCLC = tested on: A549 NSCLC
UO-31 renal = tested on: UO-31 renal
PC-3 prostate = tested on: PC-3 prostate
ACHN renal = tested on: ACHN renal
SK-MEL-2 melanoma = tested on: SK-MEL-2 melanoma
M14 melanoma = tested on: M14 melanoma
A498 renal = tested on: A498 renal
NCI-H23 lung = tested on: NCI-H23 lung
CCRF-CEM leukemia = tested on: CCRF-CEM leukemia

## O=C(c1cc(Cc2n[nH]c(=O)c3ccccc23)ccc1F)N1CCN(C(=O)C2CC2)CC1
HCT-15 colon
  GI50: > 100 µM
  TGI: > 100 µM
786-0 renal
  GI50: > 100 µM
  TGI: > 100 µM
HT29 colon
  GI50: > 100 µM
  TGI: > 100 µM
SF-268 CNS
  GI50: 24.9 µM
  TGI: > 90.3 µM
A549 NSCLC
  GI50: 44.9 µM
  TGI: > 100 µM
UO-31 renal
  GI50: > 92.7 µM
  TGI: > 100 µM
PC-3 prostate
  GI50: > 100 µM
  TGI: > 100 µM
ACHN renal
  GI50: > 81.8 µM
  TGI: > 100 µM
SK-MEL-2 melanoma
  GI50: > 100 µM
  TGI: > 100 µM
M14 melanoma
  GI50: > 91.5 µM
  TGI: > 100 µM
A498 renal
  GI50: > 100 µM
  TGI: > 100 µM
NCI-H23 lung
  GI50: 16.3 µM
  TGI: > 100 µM
CCRF-CEM leukemia
  GI50: 6.5 µM
  TGI: > 100 µM
